Measured values taken from patent US10588316B2 (priority 2015, dated 2020).
Values joined by “and” are separate entries in the source; they are usually repeats but may differ in a detail not shown here. Identical values can stand only once.

Legend:
Set-up in all cases: species or system wheat
Conditions in all cases: in vivo
DON toxin [1] = tested on: DON toxin
DON toxin [2] = tested on: DON toxin; remark: listed apart in the source
DON toxin [3] = tested on: DON toxin; remark: listed apart in the source
DON toxin [4] = tested on: DON toxin; remark: listed apart in the source
[5] = tested on: toxin synthesis capability of thalli
DON toxin [6] = tested on: DON toxin; remark: listed apart in the source

Compound | toxin contamination level of grains (DON toxin [1]) | DON Reduction Percentage (DON toxin [2]) [%] | Grain Toxin Content (mg of DON/Kg of grain) (DON toxin [3]) | Rate of Decrease in Toxin Content in Grains (%) (DON toxin [3]) | Grain Toxin Content mg of DON/kg of grain (DON toxin [4]) | Toxin Reduction Percentage % (DON toxin [4]) | DON Synthesis Capability [5] | Grain Toxin Content (DON toxin [6])
COC(=O)Nc1nc2ccccc2[nH]1 [Carbendazim, carbendazim] | 4.4 mg/kg of grains | 55.00 | 4.35 | 32.7 | 2.95 mg of DON/kg of grain | 34.73% | 28.94 | –
OCC1=CC(N[C@H]2C[C@H](CO)[C@@H](OC3O[C@H](CO)[C@@H](O)[C@H](O)[C@H]3O)C(O)[C@H]2O)[C@H](O)[C@@H](O)C1O (stereo partly shown) [Jinggangmycin, jinggangmycin A] | – | – | – | – | 2.86 mg of DON/kg of grain and 3.82 mg of DON/kg of grain and 4.02 mg of DON/kg of grain and 4.14 mg of DON/kg of grain | – | – | 2.89 μg/g of kernels and 3.24 μg/g of kernels and 3.86 μg/g of kernels and 4.2 μg/g of kernels and 4.77 μg/g of kernels
Tebuconazole | – | – | – | – | 1.89 mg of DON/kg of grain and 2.14 mg of DON/kg of grain and 2.4 mg of DON/kg of grain and 2.8 mg of DON/kg of grain | 58.19% and 52.65% and 46.90% and 38.05% | 19.88 and 18.35 and 18.95 and 19.02 and 19.41 | 4.02 μg/g of kernels and 3.29 μg/g of kernels and 2.14 μg/g of kernels and 2.08 μg/g of kernels
